Molecules are shown by their SMILES.

This experiment addresses AICARFT (Homo sapiens, UniProt P31939). Briefly: MS detection of ZMP in low folate media cultured NCI-H460 cells. Type of experiment: cell-based. Also on record: endogenous in cells; host or cells: NCI-H460. To be noted: for IC50: Mean ± SEM, ZMP concentration by LC-MS, NCI-H460 cells in low folate media, 16 hours; for AICARFT inhibition in low folate media assay (in words): low levels of folate in the media, summary of Table 16. The procedure: Grow NCI-H460 cells in complete high folate RPMI media (ATCC #30-2001) until cellular confluence reaches ˜80%. Wash cells with PBS, trypsinize, resuspend cells in complete low folate RPMI media (Gibco #27016-021) and perform a cell count. Transfer 1.25×10^6 cells to a T225 flask containing complete low folate RPMI media (40 mL). Grow for seven days. Split cells again with complete low folate media if confluence surpasses 80%. Wash cells with PBS, trypsinize, resuspend cells in complete low folate RPMI media, and perform a cell count. Aliquot 10×10^6 cells in complete low folate media (1 mL)+5% DMSO per cryovial. Use a cell freezing apparatus to freeze cells in a slow and controlled manner in a −80° C. freezer. The next day, transfer cells to liquid nitrogen for long term storage. Thaw frozen cells from cryovial in 37° C. water bath, wash cells once with low folate assay medium: folate free RPMI 1640 medium (Gibco, #27016-021), Glucose (Sigma, #G5767), Hepes (Hyclone, #SH30237.01), Na Pyruvate (Hyclone, #Sh30239.01), 10% FBS (Hyclone, #SH30070.03). Adjust cells concentration to 250,000 cells/mL with medium, plate cells by adding 100 μl/well (25,000 cells/well) into Biocoat poly-D-lysine 96-well plate (BD, #35-4640), and incubate at 37° C. overnight with 5% CO2. Treat cells with 20 μl/well compound diluted in media containing 3% DMSO. Incubate at 37° C. for 16 hours with 5% CO2, then remove the medium and add 1× SureFire Lysis Buffer (50 μL) (PerkinElem, SureFire® Kit component) to each well and incubate at room temperature for 10 min with gentle shaking.
Cells grown in a 96-well plate have the media removed and are lysed in AlphaScreen® SureFire® lysis buffer. Standard curves containing ZMP, dUMP and AICAr at concentrations of 5-10,000 ng/mL are prepared in 40 mM ammonium acetate, pH 4. Aliquots (40 μL) of each standard or sample are combined in a deep 96-well plate with 160 μL of internal standard solution containing ^13C5-ZMP (custom synthesis) and ^13C5-AICAr (custom synthesis) at 100 ng/mL in 40 mM ammonium acetate, pH 4. A Beckman Biomek FX liquid handler is used to add 400 μL of DCM to each sample. Samples are sealed, vortexed for 5 minutes, and placed in the refrigerator for at least 30 minutes. The samples are centrifuged for 10 minutes at 4,000 rpm and 4° C. using an Eppendorf 5810R centrifuge, and the Biomek liquid handler is used to transfer 75 μL of the aqueous layer into a clean 96-well plate. The plates are sealed prior to analysis.
The LC-MS method utilizes a Shimadzu Prominence 20A HPLC system connected to an AB Sciex 5500™ or an AB Sciex 6500™ triple quadrupole mass spectrometer running Analyst® 2.1 software. Extracted samples are separated using a Thermo Hypercarb™ Javelin guard column (2.1×20 mm, […]) with an injection volume of 15 μL and a flow rate of 1 mL/minute. Mobile phase A is a 95:5 mixture of 50 mM ammonium formate, pH 4 and ACN. Mobile phase B is a 70:30 mixture of ACN and MeOH spiked with 0.3% formic acid and 2% concentrated ammonium hydroxide solution (v/v). The gradient is as follows: 0 minutes, 0% B; 0.25 minutes, 0% B; 2.00 minutes, 30% B; 2.01 minutes, 95% B; 3.50 minutes, 95% B, 3.51 minutes, 0% B, 5.00 minutes, stop.
The mass spectrometer is operated in positive ion TurboIonSpray® multiple reaction monitoring mode with a source temperature of 700° C. The precursor and fragment ions for each analyte are: ZMP (339→110), ^13C5-ZMP (344→110), dUMP (309→81), AICAr (259→127) and ^13C5-AICAr (264→127). Calibration curves are constructed by plotting analyte concentrations vs. analyte/internal standard peak area ratios and performing a linear fit of the data using a 1/concentration weighting with AB Sciex MultiQuant™ 2.1 software. Back-calculated ZMP concentrations are fit to a four-parameter logistic equation using ACTIVITYBASE 4.0 to determine IC50 values.

AICARFT, sequence (P31939 whole entry): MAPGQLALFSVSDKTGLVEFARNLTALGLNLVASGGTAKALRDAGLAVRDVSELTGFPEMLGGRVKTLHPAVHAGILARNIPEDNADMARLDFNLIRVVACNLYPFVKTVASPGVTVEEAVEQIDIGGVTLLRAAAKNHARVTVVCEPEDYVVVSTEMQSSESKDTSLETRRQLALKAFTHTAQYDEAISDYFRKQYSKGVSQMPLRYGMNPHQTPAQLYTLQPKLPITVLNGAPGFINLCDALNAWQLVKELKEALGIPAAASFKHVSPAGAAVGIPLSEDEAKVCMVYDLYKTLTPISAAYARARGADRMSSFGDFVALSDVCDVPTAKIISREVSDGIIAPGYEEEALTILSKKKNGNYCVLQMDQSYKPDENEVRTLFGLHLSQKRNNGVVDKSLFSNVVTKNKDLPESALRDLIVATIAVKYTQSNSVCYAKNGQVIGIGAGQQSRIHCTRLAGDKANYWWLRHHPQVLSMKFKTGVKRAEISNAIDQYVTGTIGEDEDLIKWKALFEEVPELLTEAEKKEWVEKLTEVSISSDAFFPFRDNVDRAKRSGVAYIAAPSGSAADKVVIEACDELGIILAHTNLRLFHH

Take `O=c1[nH]ccc2cc(F)c(NS(=O)(=O)c3ccc(N4C[C@@H](O)C(F)(F)C4)s3)cc12` [Example 41, 5-[(4R)-3,3-difluoro-4-hydroxypyrrolidin-1-yl]-N-(6-fluoro-1-oxo-1,2-dihydroisoquinolin-7-yl)thiophene-2-sulfonamide]: the IC50 amounted to 42.2 nM and the “AICARFT inhibition in low folate media assay (in words)” value (from here on “AICARFT inhibition”) is “still inhibit AICARFT”.
Taken in the same sequence, the figures for `O=c1[nH]ccc2cc(F)c(NS(=O)(=O)c3ccc(N4C[C@@H](O)[C@@H](F)C4)s3)cc12` (single isomer, unassigned) [Example 33] were 7.93 nM and “still inhibit AICARFT”.
Take `O=c1[nH]ccc2cc(F)c(NS(=O)(=O)c3ccc(N4CC[C@@H](O)C4)s3)cc12` [Example 1, N-(6-Fluoro-1-oxo-1,2-dihydroisoquinolin-7-yl)-5-[(3R)-3-hydroxypyrrolidin-1-yl]thiophene-2-sulfonamide]: the “AICARFT inhibition” value is on record as “still inhibit AICARFT”.
Consider `CCC1(C)CC(c2ccc(S(=O)(=O)Nc3cc4c(=O)[nH]ccc4cc3F)s2)=CNC1=O` (single isomer, unassigned; isomer 1) [Example 84, 5-(5-Ethyl-5-methyl-6-oxo-1,4,5,6-tetrahydropyridin-3-yl)-N-(6-fluoro-1-oxo-1,2-dihydroisoquinolin-7-yl)thiophe2ne-2-sulfonamide, Isomer 1], for which half-maximal inhibition (IC50) required 10.1 nM and the “AICARFT inhibition” value is reported as “still inhibit AICARFT”.
Consider `CC1(C)CC(c2ccc(S(=O)(=O)Nc3cc4c(=O)[nH]ccc4cc3F)s2)=CNC1=O` [Example 81, 5-(5,5-Dimethyl-6-oxo-1,4,5,6-tetrahydropyridin-3-yl)-N-(6-fluoro-1-oxo-1,2-dihydroisoquinolin-7-yl)thiophene-2-sulfonamide], for which the IC50 is 10.2 nM and the “AICARFT inhibition” value is listed as “still inhibit AICARFT”.
On the same counts, the results for `O=c1[nH]ccc2cc(F)c(NS(=O)(=O)c3ccc([C@@H]4CC[C@@H](O)C4)s3)cc12` (single isomer, unassigned) [Example 46] are 39.6 nM and “still inhibit AICARFT”.

By IC50 is commonly meant the concentration at which inhibition is half-maximal. Read a high IC50 as a need for much substance.

Values taken from patent US9776992B2, “1-oxo-1,2-dihydroisoquinolin-7-yl-(5-substituted-thiophen-2-yl)-sulfonamide compounds, formulations containing those compounds, and their use as AICARFT inhibitors in the treatment of cancers” (Eli Lilly and Company, priority 2014, dated 2017).
